Values of other authors, collected in patent US7416898B2, “Chemiluminescent 1,2-dioxetanes” (priority 2002, dated 2008).

Details: compared with 1,2-dioxetanes (14) and (15)

## O=C(O)CCCOC1(c2cccc(OP(=O)(O)O)c2)OOC12C1CC3CC(C1)CC2C3 (stereo not shown) [Dioxetane 16]
  solubility in an aqueous system: more soluble in an aqueous system than 1,2-dioxetane (14) and (15)
